Our source for the IC50 values is US12371432B2, “Haloallylamine compounds and application thereof” (TransThera Sciences (Nanjing), Inc., priority 2019, dated 2025).

One experiment addresses T1, rhAOC1 (Homo sapiens, UniProt P19801).
T1 construct: purchased R&D
T1 sequence (P19801 20-751): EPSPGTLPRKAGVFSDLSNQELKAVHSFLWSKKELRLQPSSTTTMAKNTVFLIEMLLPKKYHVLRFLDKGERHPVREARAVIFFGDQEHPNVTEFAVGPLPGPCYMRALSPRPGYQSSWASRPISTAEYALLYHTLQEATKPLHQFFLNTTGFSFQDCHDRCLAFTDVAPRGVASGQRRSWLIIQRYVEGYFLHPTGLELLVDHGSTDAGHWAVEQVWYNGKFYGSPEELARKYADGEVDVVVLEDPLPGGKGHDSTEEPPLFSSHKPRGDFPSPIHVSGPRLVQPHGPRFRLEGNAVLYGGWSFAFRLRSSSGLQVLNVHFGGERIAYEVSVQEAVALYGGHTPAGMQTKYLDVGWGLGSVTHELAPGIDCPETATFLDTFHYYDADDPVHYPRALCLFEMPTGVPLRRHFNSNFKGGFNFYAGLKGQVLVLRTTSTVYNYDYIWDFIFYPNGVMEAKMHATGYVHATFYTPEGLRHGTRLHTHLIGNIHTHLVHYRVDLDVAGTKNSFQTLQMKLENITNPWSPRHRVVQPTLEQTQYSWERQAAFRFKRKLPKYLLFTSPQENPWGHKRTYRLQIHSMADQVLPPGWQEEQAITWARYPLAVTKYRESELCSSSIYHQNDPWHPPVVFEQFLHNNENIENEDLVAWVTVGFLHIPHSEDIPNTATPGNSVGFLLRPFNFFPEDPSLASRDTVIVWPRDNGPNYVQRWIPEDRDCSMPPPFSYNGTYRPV
The experiment can be described thus: Selectivity against rhAOC1 enzyme (Biological Example 2). In kind it is biochemical. The note with it: Table 2; histamine substrate, Amplex Red/HRP. On the procedure: 2. Selectivity of Compounds Against rhAOC1 Enzyme
(§1) (1) Instrument, Consumable and Reagent
Microplate reader (Perkin Elmer, Nivo 5S), black unclear-bottom 96-well plate (Corning) and rhAOC1 (R&D)
(§2) (2) Preparation of Concentration Gradient Compound Solutions
An appropriate amount of the compound to be tested was taken, dissolved in DMSO to 10 mM and then stored. Before the study, an appropriate amount of mother liquor of the 10 mM compound to be tested was taken and gradiently diluted 3-fold with DMSO, 10 concentration gradients in total. Each concentration gradient was then diluted 10-fold with 0.1 M of PBS.
(§3) (3) Preparation of Enzyme Solutions
An appropriate amount of rhAOC1 mother liquor with a concentration of 0.441 mg/mL was taken and diluted with an appropriate amount of 50 mM HEPES buffer solution to obtain enzyme solutions of 4× concentrations.
(§4) (4) Preparation of Substrate Mixtures of 2× Concentrations
An appropriate amount of histamine was weighed and dissolved with 50 mM of HEPES buffer solution to obtain 20 mM of histamine solution. The histamine solution was added with 2 mM of Amplex Red mother liquor and 500 U/mL of HRP mother liquor and diluted with 50 mM of HEPES buffer solution to obtain substrate mixtures of 2× concentrations.
(§5) 10 μL compound solutions of different concentrations, 25 μL rhAOC1 enzyme solutions of 4× concentrations and 15 μL of 50 mM HEPES buffer solution were first added into a 96-well plate, shaken to be mixed uniformly and then incubated at 37° C. for 30 min. 50 μL substrate mixtures of 2× concentrations were then added into each well, and the microplate reader was immediately used to detect fluorescence intensity of each well with 580 nm (20 nm) exciting light and 620 nm (10 nm) emission light for 5 min each time, 30 min in total. The inhibition rate was calculated according to the following formula: V (RFU/min)=(Ft (RFU)−F0 (RFU))/(time(min)) Inhibition rate (%)=100%−Vcmpd (RFU/min)/Vmax (RFU/min)×100%
(§6) V: fluorescence change rate; Ft: fluorescence reading at time point t; F0: initial fluorescence reading; Time: duration t; Vcmpd: fluorescence change rate of tested compound; Vmax: Max hole fluorescence change rate.
(§7) (6) Fitting of Dose-Response Curve
(§8) With the log value of concentration as the X axis and the percent inhibition rate as the Y axis, the log (inhibitor) vs. response-variable slope of analysis software GraphPad Prism 5 was used to fit a dose-response curve, thus obtaining the IC50 value of activity of each compound against the enzyme.

A further experiment concerns the target T2, rhVAP-1 (Homo sapiens, UniProt Q16853).
T2 construct: purchased PeproTech
T2 sequence (Q16853 27-763 limits assumed): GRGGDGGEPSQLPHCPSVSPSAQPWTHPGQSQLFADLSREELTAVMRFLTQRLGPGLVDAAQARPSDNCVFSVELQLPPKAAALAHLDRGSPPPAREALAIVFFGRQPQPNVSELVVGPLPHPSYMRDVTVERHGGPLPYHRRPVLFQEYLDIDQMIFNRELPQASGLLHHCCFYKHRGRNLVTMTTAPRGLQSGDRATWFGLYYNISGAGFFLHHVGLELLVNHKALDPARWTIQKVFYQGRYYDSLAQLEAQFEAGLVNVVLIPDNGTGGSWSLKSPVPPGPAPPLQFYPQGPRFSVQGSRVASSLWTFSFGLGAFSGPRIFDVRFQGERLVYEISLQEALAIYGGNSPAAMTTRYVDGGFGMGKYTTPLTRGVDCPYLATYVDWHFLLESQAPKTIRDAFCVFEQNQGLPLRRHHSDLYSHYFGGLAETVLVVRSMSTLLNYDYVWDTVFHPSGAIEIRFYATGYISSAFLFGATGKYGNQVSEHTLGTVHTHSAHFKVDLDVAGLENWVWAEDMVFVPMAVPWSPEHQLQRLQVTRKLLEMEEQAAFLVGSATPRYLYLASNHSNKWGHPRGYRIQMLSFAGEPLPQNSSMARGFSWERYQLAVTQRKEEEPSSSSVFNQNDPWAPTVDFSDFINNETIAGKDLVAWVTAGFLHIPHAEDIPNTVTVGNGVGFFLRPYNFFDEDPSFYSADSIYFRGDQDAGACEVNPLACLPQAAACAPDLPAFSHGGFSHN
The experiment in a line: Inhibitory activity against rhVAP-1 enzyme (Biological Example 2). The conditions noted are these: Table 2; benzylamine substrate, Amplex Red/HRP. It counts as biochemical. Here is the method:
1. Inhibitory Activity of Compounds Against rhVAP-1 Enzyme
as §1
Microplate reader (Perkin Elmer, Nivo 5S), black unclear-bottom 96-well plate (Corning) and rhVAP-1 (PeproTech)
as §2
An appropriate amount of the compound to be tested was taken, dissolved in DMSO to 10 mM and then stored. Before the study, an appropriate amount of mother liquor of the 10 mM compound to be tested was taken and gradiently diluted 3-fold with DMSO, 10 concentration gradients in total. Each concentration gradient was then diluted 100-fold with 0.1 M of PBS.
as §3
An appropriate amount of protein diluent was added into rhVAP-1 powder, obtaining 1 mg/mL of mother liquor for storage. Before the study, PBS was used to carry out dilution to obtain enzyme solutions of 4× concentrations.
as §4
An appropriate amount of benzylamine was weighed and dissolved with PBS to obtain 200 mM of benzylamine solution. The benzylamine solution was added with 2 mM of Amplex Red mother liquor and 500 U/mL of HRP mother liquor and diluted with PBS to obtain substrate mixtures of 2× concentrations.
as §5, with “rhVAP-1” for “rhAOC1”, “PBS” for “50 mM HEPES buffer solution”, “perform detection” for “detect fluorescence intensity of each well”
as §6, §7, §8

Counter-ions that a name gives are not always drawn.

Take `CCN1Cc2cnn(C/C(=C/F)CN)c2C1=O` [Compound A31 hydrochloride, (E)-1-(2-(aminomethyl)-3-fluoroallyl)-5-ethyl-4,5-dihydropyrrolo[3,4-c]pyrazol-6(1H)-one]: the IC50 stood at 8280 nM against rhAOC1 and 53 nM on rhVAP-1.
In the case of `CC(C)(C)NC(=O)c1cnn(C/C(=C/F)CN)c1` [Compound B3, (E)-1-(2-(aminomethyl)-3-fluoroallyl)-N-(tert-butyl)-1H-pyrazole-4-carboxamide], the IC50 against rhAOC1 turned out to be 12500 nM; on rhVAP-1, 89 nM.
In the case of `CN(C)C(=O)c1cnn(C/C(=C/F)CN)c1` [Compound B29, (E)-1-(2-(aminomethyl)-3-fluoroallyl)-N,N-dimethyl-1H-pyrazole-4-carboxamide], the concentration for half-maximal inhibition (IC50) against rhAOC1 was 10800 nM; against rhVAP-1 it was 70 nM.
Taken in the same sequence, the figures for `CC(C)(C)NC(=O)c1ccn(C/C(=C/F)CN)c1` [Compound B12, (E)-1-(2-aminomethyl-3-fluoroallyl)-N-tert-butyl-1H-pyrrole-3-carboxamide] were 8580 nM and 83 nM.
For the compound `NC/C(=C\F)Cn1ccc2cc(C(=O)N3CCC3)ccc21` [Compound C13 hydrochloride, (E)-(1-(2-(aminomethyl)-3-fluoroallyl)-1H-indol-5-yl)(azetidin-1-yl)methanone], the IC50 against rhAOC1 worked out at 1080 nM; against rhVAP-1, 67 nM.
Taken in the same sequence, the figures for `COC1(C)CCN(C(=O)c2ccc3c(ccn3C/C(=C/F)CN)c2)CC1` [Compound C15 hydrochloride, (E)-(1-(2-(aminomethyl)-3-fluoroallyl)-1H-indol-5-yl)(4-methoxy-4-methylpiperidin-1-yl)methanone] were 8380 nM and 63 nM.
Taken in the same sequence, the figures for `NC/C(=C\F)Cn1ccc2cc(C(=O)N3CCCC3)ccc21` [Compound C7 hydrochloride, (E)-(1-(2-(aminomethyl)-3-fluoroallyl)-1H-indole-5-yl)(pyrrolidin-1-yl)methanone] were 13400 nM and 96 nM.
On to `CC(C)(C)N1Cc2nn(C/C(=C/F)CN)cc2C1=O` [Compound A13, (E)-2-(2-(aminomethyl)-3-fluoroallyl)-5-(tert-butyl)-5,6-dihydropyrrolo[3,4-c]pyrazol-4(2H)-one], for which the IC50 at rhAOC1 amounted to 4180 nM; against rhVAP-1 it was 58 nM.
For `CC(C)N1CCc2nn(C/C(=C/F)CN)cc2C1=O` [Compound A27 hydrochloride, (E)-2-(2-(aminomethyl)-3-fluoroallyl)-5-isopropyl-2,5,6,7-tetrahydro-4H-pyrazolo[4,3-c]pyridin-4-one], the figures for the IC50 on rhAOC1 and at rhVAP-1 were 9650 nM and 112 nM, respectively.
For `NC/C(=C\F)Cn1cc2c(n1)CCN(C1CCC1)C2=O` [Compound A9 hydrochloride, (E)-2-(2-(aminomethyl)-3-fluoroallyl)-5-cyclobutyl-2,5,6,7-tetrahydro-4H-pyrazolo[4,3-c]pyridin-4-one], the IC50 amounted to 911 nM against rhAOC1 and 37 nM on rhVAP-1.
`CN1CCc2nn(C/C(=C/F)CN)cc2C1=O` [Compound A24 hydrochloride, (E)-2-(2-(aminomethyl)-3-fluoroallyl)-5-methyl-2,5,6,7-tetrahydro-4H-pyrazolo[4,3-c]pyridin-4-one]: the IC50 on rhAOC1 came to 4720 nM; on rhVAP-1, 54 nM.
With `CC(C)(C)N1CCc2c(cnn2C/C(=C/F)CN)C1=O` [Compound A21, (E)-1-(2-(aminomethyl)-3-fluoroallyl)-5-(tert-butyl)-1,5,6,7-tetrahydro-4H-pyrazolo[4,3-c]pyridin-4-one], the IC50 was determined as 4050 nM against rhAOC1 and 96 nM against rhVAP-1.
On to `NC/C(=C\F)Cn1cc(C(=O)Nc2ccc(Cl)cc2)cn1` [Compound B28, (E)-1-(2-aminomethyl-3-fluoroallyl)-N-4-chlorophenyl-1H-pyrazole-4-carboxamide], for which it took 14 nM to reach half-maximal inhibition against rhVAP-1 (IC50).
For `COCCN1CCc2nn(C/C(=C/F)CN)cc2C1=O` [Compound A47 hydrochloride, (E)-2-(2-(aminomethyl)-3-fluoroallyl)-5-(2-methoxyethyl)-2,5,6,7-tetrahydro-4H-pyrazolo[4,3-c]pyridin-4-one], the IC50 against rhVAP-1 came to 20 nM.
`NC/C(=C\F)Cn1cc2c(n1)CCNC2=O` [Compound A23 hydrochloride, (E)-2-(2-(aminomethyl)-3-fluoroallyl)-2,5,6,7-tetrahydro-4H-pyrazolo[4,3-c]pyridin-4-one] displayed an IC50 on rhVAP-1 of 39 nM.
The same measure, in the same setting: the result for `CCC(C)(C)N1CCc2nn(C/C(=C/F)CN)cc2C1=O` [Compound A49 hydrochloride, (E)-2-(2-(aminomethyl)-3-fluoroallyl)-5-(tert-pentyl)-2,5,6,7-tetrahydro-4H-pyrazolo[4,3-c]pyridin-4-one] reads 17 nM; that for `NC/C(=C\F)Cn1cc2c(n1)CCN(CC1CC1)C2=O` [Compound A48 hydrochloride, (E)-2-(2-(aminomethyl)-3-fluoroallyl)-5-(cyclopropylmethyl)-2,5,6,7-tetrahydro-4H-pyrazolo[4,3-c]pyridin-4-one], 12 nM.

The IC50 is the concentration at which inhibition is half-maximal. The low end stands for inhibition by little substance, the high end for a need for much substance.
